The values that follow come from ChEMBL document CHEMBL1828534, “Synthesis and antitumor activity of 1,2,4-triazoles having 1,4-benzodioxan fragment as a novel class of potent methionine aminopeptidase type II inhibitors” (Bioorg Med Chem, 2011).

In assay [1] the test system is HepG2. Put plainly: cells. The following applies: Homo sapiens, HepG2, 24 h.
Description: Antiproliferative activity against human HepG2 cells after 24 hrs by MTT assay
A short description of another assay: cells. The following applies: Homo sapiens, SW 1116, 24 h.
For the next assay, the system named is HeLa. Briefly: cells. Particulars: Homo sapiens, 24 h.
The next assay deals with BGC-823. Put plainly: cells. Particulars: Homo sapiens, BGC-823, 24 h.
Assay [2] addresses Methionine aminopeptidase 2 (Homo sapiens, UniProt P50579). Briefly: Inhibition of MetAP2 after 4 hrs.
Assay [3] has as its system HepG2. Put plainly: Induction of apoptosis in human HepG2 cells assessed as late apoptotic/necrotic cells at 4 uM after 24 hrs using annexin V-FITC and propidium iodide staining by flow cytometry analysis (Rvb =0.02 %). In kind it is functional.
In assay [4] the test system is HepG2. Briefly: Induction of apoptosis in human HepG2 cells assessed as late pre-necrotic cells at 4 uM after 24 hrs using annexin V-FITC and propidium iodide staining by flow cytometry analysis (Rvb =0.02 %). In kind it is functional.
In assay [5] the test system is HepG2. Briefly: Induction of apoptosis in human HepG2 cells assessed as early apoptotic cells at 4 uM after 24 hrs using annexin V-FITC and propidium iodide staining by flow cytometry analysis (Rvb =0.02 %). The format is functional.
In assay [6] the test system is HepG2. Briefly: Induction of apoptosis in human HepG2 cells assessed as viable cells at 0.5 uM after 24 hrs using annexin V-FITC and propidium iodide staining by flow cytometry analysis (Rvb =96.26 %). The format is functional. The following applies: HepG2, 24 h, read-out: Activity.
Assay [7] has as its system HepG2. Briefly: Induction of apoptosis in human HepG2 cells assessed as late pre-necrotic cells at 1 uM after 24 hrs using annexin V-FITC and propidium iodide staining by flow cytometry analysis (Rvb =0.02 %). In kind it is functional.
The subject of assay [8] is HepG2. Briefly: Induction of apoptosis in human HepG2 cells after 24 hrs using annexin V-FITC and propidium iodide staining by flow cytometry analysis. The format is functional, cell-based.
For assay [9], the system named is HepG2. Briefly: Induction of apoptosis in human HepG2 cells assessed as late apoptotic/necrotic cells at 2 uM after 24 hrs using annexin V-FITC and propidium iodide staining by flow cytometry analysis (Rvb =0.02 %). In kind it is functional.
In assay [10] the test system is HepG2. Put plainly: Induction of apoptosis in human HepG2 cells assessed as viable cells at 1 uM after 24 hrs using annexin V-FITC and propidium iodide staining by flow cytometry analysis (Rvb =96.26 %). The format is functional. The following applies: HepG2, 24 h, read-out: Activity.
Assay [11] concerns HepG2. Put plainly: Induction of apoptosis in human HepG2 cells assessed as early apoptotic cells at 2 uM after 24 hrs using annexin V-FITC and propidium iodide staining by flow cytometry analysis (Rvb =0.02 %). In kind it is functional.
Assay [12] relates to HepG2. Put plainly: Induction of apoptosis in human HepG2 cells assessed as late pre-necrotic cells at 2 uM after 24 hrs using annexin V-FITC and propidium iodide staining by flow cytometry analysis (Rvb =0.02 %). The format is functional.
Assay [13] relates to HepG2. Put plainly: Induction of apoptosis in human HepG2 cells assessed as viable cells at 4 uM after 24 hrs using annexin V-FITC and propidium iodide staining by flow cytometry analysis (Rvb =96.26 %). The format is functional. The following applies: HepG2, 24 h, read-out: Activity.
Assay [14] deals with HepG2. Put plainly: Induction of apoptosis in human HepG2 cells assessed as late apoptotic/necrotic cells at 0.5 uM after 24 hrs using annexin V-FITC and propidium iodide staining by flow cytometry analysis (Rvb =0.02 %). In kind it is functional.
The test system of assay [15] is HepG2. Briefly: Induction of apoptosis in human HepG2 cells assessed as late apoptotic/necrotic cells at 1 uM after 24 hrs using annexin V-FITC and propidium iodide staining by flow cytometry analysis (Rvb =0.02 %). The format is functional.
Assay [16] relates to HepG2. Briefly: Induction of apoptosis in human HepG2 cells assessed as early apoptotic cells at 1 uM after 24 hrs using annexin V-FITC and propidium iodide staining by flow cytometry analysis (Rvb =0.02 %). The format is functional.
Assay [17] relates to HepG2. Put plainly: Induction of apoptosis in human HepG2 cells assessed as late pre-necrotic cells at 0.5 uM after 24 hrs using annexin V-FITC and propidium iodide staining by flow cytometry analysis (Rvb =0.02 %). In kind it is functional.
Assay [18] concerns HepG2. Briefly: Induction of apoptosis in human HepG2 cells assessed as viable cells at 2 uM after 24 hrs using annexin V-FITC and propidium iodide staining by flow cytometry analysis (Rvb =96.26 %). Particulars: HepG2, 24 h, read-out: Activity. The format is functional.
Assay [19] deals with HepG2. Briefly: Induction of apoptosis in human HepG2 cells assessed as early apoptotic cells at 0.5 uM after 24 hrs using annexin V-FITC and propidium iodide staining by flow cytometry analysis (Rvb =0.02 %). In kind it is functional.

A value given as a limit tells only on which side of the number the result lay.

Sequence of Methionine aminopeptidase 2 (P50579 whole entry): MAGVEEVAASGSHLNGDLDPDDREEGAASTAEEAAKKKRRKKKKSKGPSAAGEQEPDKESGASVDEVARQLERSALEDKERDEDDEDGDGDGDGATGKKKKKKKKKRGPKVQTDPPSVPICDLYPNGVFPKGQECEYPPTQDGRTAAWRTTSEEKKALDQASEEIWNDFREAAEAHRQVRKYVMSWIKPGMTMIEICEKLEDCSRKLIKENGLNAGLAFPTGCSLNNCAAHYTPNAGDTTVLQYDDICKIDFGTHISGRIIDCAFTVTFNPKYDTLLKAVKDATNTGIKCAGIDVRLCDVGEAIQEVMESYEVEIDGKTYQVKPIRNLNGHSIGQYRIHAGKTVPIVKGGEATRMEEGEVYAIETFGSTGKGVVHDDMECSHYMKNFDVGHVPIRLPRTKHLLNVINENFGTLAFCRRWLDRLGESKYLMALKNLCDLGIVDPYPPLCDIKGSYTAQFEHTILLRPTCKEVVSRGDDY
Description for BGC-823: Antiproliferative activity against human BGC823 cells after 24 hrs by MTT assay
Description for HeLa: Antiproliferative activity against human HeLa cells after 24 hrs by MTT assay

Consider `Clc1ccccc1CSc1nnc(-c2ccc3c(c2)OCCO3)n1-c1ccccc1`, for which the half-maximal inhibitory concentration (IC50) with HepG2 [1] was 0.97 µM; in “cells”, 9.67 µM; in the assay with HeLa it was 29 µM; with BGC-823 it was 17.4 µM.
Turning to `Sc1nnc(-c2ccc3c(c2)OCCO3)n1-c1ccccc1`, the concentration for half-maximal inhibition (IC50) in the assay with HepG2 [1] amounted to 60 µM; in “cells” it was 38.4 µM; in the assay with HeLa, 51.9 µM; in the assay with BGC-823 it was 47 µM.
On to `CO[C@@H]1[C@H](OC(=O)NC(=O)CCl)CC[C@]2(CO2)[C@H]1[C@@]1(C)O[C@@H]1CC=C(C)C` [O-CHLOROACETYLCARBAMOYLFUMAGILLOL], for which the IC50 in assay [2] amounted to 1.05 µM; in the assay with HepG2 [1] it was 0.86 µM; in the assay “cells”, 5.54 µM; in the assay on HeLa, 2.02 µM; with BGC-823, 1.48 µM.
For the compound `Fc1cccc(F)c1CSc1nnc(-c2ccc3c(c2)OCCO3)n1-c1ccccc1`, the half-maximal inhibitory concentration (IC50) amounted to 2.07 µM in the assay on HepG2 [1], 9.01 µM in the assay “cells”, 35.2 µM in the assay with HeLa and 84.2 µM in the assay on BGC-823.
The matching figures for `Brc1ccccc1CSc1nnc(-c2ccc3c(c2)OCCO3)n1-c1ccccc1`: 4.73 µM, 7.35 µM, > 100 µM and > 100 µM.
For the compound `Clc1cccc(CSc2nnc(-c3ccc4c(c3)OCCO4)n2-c2ccccc2)c1`, the half-maximal inhibitory concentration (IC50) with HepG2 [1] is 2.39 µM; in “cells”, 10.6 µM; in the assay on HeLa, 15 µM; in the assay on BGC-823 it was 51.2 µM.
For `Brc1cccc(CSc2nnc(-c3ccc4c(c3)OCCO4)n2-c2ccccc2)c1`, in that order: 5.21 µM, 26.2 µM, 44.2 µM and 65.6 µM.
Consider `O=[N+]([O-])c1cccc(CSc2nnc(-c3ccc4c(c3)OCCO4)n2-c2ccccc2)c1`, for which the half-inhibitory concentration (IC50) in the assay with HepG2 [1] amounted to 49.3 µM; in “cells”, 7.59 µM; with HeLa, 45.2 µM; in the assay on BGC-823 it was 30.1 µM.
For `Fc1ccc(CSc2nnc(-c3ccc4c(c3)OCCO4)n2-c2ccccc2)c(F)c1`, in that order: 1.96 µM, 7.83 µM, 18.6 µM and > 100 µM.
For `Cc1ccccc1CSc1nnc(-c2ccc3c(c2)OCCO3)n1-c1ccccc1`, in that order: 20.5 µM, 12.7 µM, 36 µM and > 100 µM.
Regarding `O=[N+]([O-])c1ccc(CSc2nnc(-c3ccc4c(c3)OCCO4)n2-c2ccccc2)cc1`, the concentration for half-maximal inhibition (IC50) came out at 13.8 µM in the assay on HepG2 [1], 13.8 µM in “cells”, 36.2 µM with HeLa and 48.6 µM in the assay on BGC-823.
For `O=[N+]([O-])c1ccccc1CSc1nnc(-c2ccc3c(c2)OCCO3)n1-c1ccccc1`, the half-maximal inhibitory concentration (IC50) is 12 µM in the assay with HepG2 [1], 8.3 µM in “cells”, 69.8 µM in the assay with HeLa and 26.4 µM with BGC-823.
The matching figures for `Cc1ccc(CSc2nnc(-c3ccc4c(c3)OCCO4)n2-c2ccccc2)cc1`: 56.8 µM, 16.2 µM, 49.7 µM and 44.3 µM.
`Fc1ccccc1CSc1nnc(-c2ccc3c(c2)OCCO3)n1-c1ccccc1`: the Activity in the assay with HepG2 [3] is 23.25%; in the assay on HepG2 [4], 26.23%; in the assay on HepG2 [5], 11%; in the assay with HepG2 [7], 24.49%; with HepG2 [8] it was “Dose-dependent effect”; with HepG2 [9], 18%. The Activity is listed as 4.03% in the assay on HepG2 [11]; 27.21% with HepG2 [12]; 8% with HepG2 [14]; 13.17% with HepG2 [15]; 3.49% in the assay with HepG2 [16]; 32.8% in the assay on HepG2 [17]. Moreover, the Activity with HepG2 [19] came to 0.8%. In addition, in the assay with HepG2 [6], the viability at 0.5 µM came out at 58.3%. Besides, in the assay on HepG2 [10], the viability at 1 µM stood at 58.9%. Besides, the viability at 4 µM with HepG2 [13] was found to be 39.5%. The IC50 in the assay with HepG2 [1] was determined as 0.81 µM; in the assay “cells”, 13.6 µM; in the assay on HeLa, 24.2 µM; in the assay on BGC-823 it was 18.6 µM. Further, the viability at 2 µM in the assay on HepG2 [18] turned out to be 50.8%.
For `Fc1ccc(CSc2nnc(-c3ccc4c(c3)OCCO4)n2-c2ccccc2)cc1`, the 50% inhibitory concentration (IC50) with HepG2 [1] is 1.02 µM; in “cells”, 20.8 µM; with HeLa, 46.9 µM; in the assay on BGC-823, > 100 µM.
The matching figures for `Clc1ccc(CSc2nnc(-c3ccc4c(c3)OCCO4)n2-c2ccccc2)cc1`: 3.53 µM, 8.3 µM, 79.2 µM and 79.3 µM.
For `COc1cccc(CSc2nnc(-c3ccc4c(c3)OCCO4)n2-c2ccccc2)c1`, in that order: 35.1 µM, 10.1 µM, > 100 µM and > 100 µM.
For the compound `Brc1ccc(CSc2nnc(-c3ccc4c(c3)OCCO4)n2-c2ccccc2)cc1`, the half-maximal inhibitory concentration (IC50) in the assay on HepG2 [1] was 7.94 µM; in the assay “cells” it was 5.81 µM; in the assay on HeLa, 54.6 µM; in the assay on BGC-823, 33.8 µM.
The matching figures for `c1ccc(CSc2nnc(-c3ccc4c(c3)OCCO4)n2-c2ccccc2)cc1`: 5.96 µM, 7.93 µM, 32.8 µM and 73.4 µM.
